According to the RepoRT retention time repository:

test: Agilent ZORBAX 300 SB-C18, 150 × 1 mm, 3.5 µm; A: water + 0.01% heptafluorobutyric acid; B: acetonitrile + 0.01% heptafluorobutyric acid; gradient (min/%B) 0/0 100/90; settings: stereoisomer not certain

In order of rising LC retention time:
1. O=C1OCc2c1[nH]c(=O)[nH]c2=O  1.27 min
2. O=C(O)c1cc(=O)[nH]c(=O)[nH]1  1.33 min
3. CC(=O)NC(NC(C)=O)C(O)C(O)C(O)C(O)CO (stereo unspecified)  1.55 min
4. C[N+](C)(C)CCOP(=O)(O)OP(=O)(O)OCC1OC(n2ccc(N)nc2=O)C(O)C1O (stereo unspecified)  1.63 min
5. O=C(O)CNC(CO)(CO)CO  1.66 min
6. CC(=O)NC(NC(C)=O)NC(C)=O  1.91 min
7. CNC(=O)NC  1.96 min
8. O=C1NCCO1  2.05 min
9. O=c1[nH]c2cc[nH]c(=O)c2[nH]1  2.62 min
10. Cc1nc(N)cc(=O)[nH]1  2.75 min
11. CN1CC(C(=O)O)CC1=O (stereo unspecified)  3.04 min
12. C#CCN(C)C  4.22 min
13. NC1CCOCC1  4.24 min
14. CC1=NCCC1  4.35 min
15. CN1CCCC1  5.54 min
16. Nc1ccc2[nH]ncc2c1  5.74 min
17. CCCN1CCCC(C(N)=O)C1 (stereo unspecified)  6.49 min
18. Cn1cnc2c1c(=O)[nH]c(=O)n2C  6.5 min
19. CNc1ccccn1  6.54 min
20. Nc1ccc2ncc(=O)[nH]c2c1  6.59 min
21. Cc1cccnc1C  6.67 min
22. C#CC(C)(N)CC (stereo unspecified)  6.91 min
23. NC1CCCCC1N (stereo unspecified)  7.01 min
24. CN(C)C(CN)c1ccco1 (stereo unspecified)  7.02 min
25. COC(=O)Cc1ccc(N)cc1N  7.24 min
26. NC1Cc2ccccc2NC1=O (stereo unspecified)  7.26 min
27. O=C1CCCN1CP(=O)(O)CCc1ccccc1  7.26 min
28. Nc1ccc2c(c1)COC2=O  7.27 min
29. CC(C)CNCCN1CCOCC1  7.31 min
30. Cc1cccc(N)c1N  7.32 min
31. CN(C)CCCNCCCN  7.35 min
32. N=C(N)N=Nc1ccc(O)cc1  7.38 min
33. NCCCNCCN  7.42 min
34. O=C(N=CNC(=O)c1cccnc1)c1cccnc1  7.45 min
35. O=C(O)c1ccccc1CN1CCCC1  7.5 min
36. c1csc(CN2CCNCC2)c1  7.6 min
37. OCCCCNCc1ccccc1  7.61 min
38. Cc1ccc(N)cc1  7.62 min
39. COC(=O)C(N)c1ccccc1 (stereo unspecified)  7.62 min
40. CCNCc1ccccc1  7.68 min
41. CCN(CC)CCNC(=O)c1ccc(N)cc1  7.73 min
42. CC(=O)Nc1ccc(Cc2ccncc2)cc1  7.75 min
43. O=C(Nc1ccc2[nH]c(=O)[nH]c2c1)c1ccco1  7.75 min
44. Cc1ccc2ccc[n+](C)c2c1  7.88 min
45. CC(C)Nc1ccccc1  8.04 min
46. CC(C)(C)C(=N)C(C)(C)C  8.06 min
47. O=c1[nH]c2ccccc2c(=O)n1-c1cccnc1  8.1 min
48. CCC(C)NC(C)CC (stereo unspecified)  8.16 min
49. CC1(C)CC(O)N=C1c1ccccc1 (stereo unspecified)  8.25 min
50. Cc1cccc(N(C)C)c1  8.26 min
51. CCCCNCC(=O)Nc1ccc(NC(=O)CNCCCC)cc1  8.26 min
52. NCCCCCCCCCCCCN  8.26 min
53. S=C1NCN(Cc2ccccc2)CN1  8.28 min
54. CNC1C(OC2OC(CO)C(N)C(O)C2O)OC2CC(N)C(OC3C(N)CC(N)C(O)C3O)OC2C1O (stereo unspecified)  8.39 min
55. CNC(C)C(=O)c1ccccc1 (stereo unspecified)  8.4 min
56. COCCNC(=O)Cn1c(=O)n(C)c2ccccc21  8.47 min
57. CC(=O)N1CCc2cc(C(=O)O)ccc21  8.48 min
58. CC(C)CNC(=O)C(=O)NC1CC(C)(C)NC(C)(C)C1  8.6 min
59. CC(C)c1ccccc1NC(=O)CN  8.61 min
60. NC(=O)CNC(=O)c1ccc2ccccc2n1  8.66 min
61. Oc1ccc2c(c1)C13CCCCC1(O)C(C2O)N(CC1CCC1)CC3 (stereo unspecified)  8.68 min
62. COc1cc(Cc2cnc(N)nc2N)cc(OC)c1OC  8.69 min
63. c1ccc(C2CN3CCSC3=N2)cc1 (stereo unspecified)  8.73 min
64. CC1Cc2ccccc2N1C(=O)CN1CCN(C)CC1 (stereo unspecified)  8.74 min
65. C=CCC1(CC=C)CCCCN1  8.76 min
66. CCc1c(C)nc2c(O)cccn2c1=O  8.76 min
67. OCc1ccccc1CNC1CCCCC1  8.87 min
68. CC1(C)CC(NC(=S)Nc2ccccc2)CC(C)(C)N1  9 min
69. O=C(O)CC(NC(=O)OCc1ccccc1)C(=O)O (stereo unspecified)  9.01 min
70. CCC(NC)c1ccccc1OC (stereo unspecified)  9.09 min
71. CCC1(CC)C(=O)NCC(C)C1=O (stereo unspecified)  9.1 min
72. O=C(CC1NC(=O)N(C2CCCCC2)C1=O)Nc1cccnc1 (stereo unspecified)  9.1 min
73. Cc1c[n+](C)c(C)cc1-c1ccccc1  9.13 min
74. CC1(c2ccccc2)OCOC1=CC[N+](C)(C)C (stereo unspecified)  9.45 min
75. Cc1ccc(CN2C(=O)CCC2=O)o1  9.52 min
76. Cc1cn(COCc2ccccc2)c(=O)[nH]c1=O  9.82 min
77. Cc1ccc(NC2=NCC(C)S2)cc1C (stereo unspecified)  9.88 min
78. O=C(O)C=CC(=O)N1CCc2ccccc21  9.97 min
79. CC(C)CNC(=O)C(=O)Nc1ccc(N(C)C)cc1  9.98 min
80. c1cncc(-c2cc3ccccc3[nH]2)c1  10.1 min
81. COc1ccc(NC(=O)c2cc3ccccc3oc2=N)cc1  10.1 min
82. CC(=O)N1CCc2[nH]c3ccccc3c2C1  10.2 min
83. O=C(NCc1ccncc1)c1ccc(-c2ccccc2)cc1  10.2 min
84. Cc1ccc(C(C)C)c(OCCN)c1  10.2 min
85. CCN(CC)c1nc(-c2ccncc2)nc2ccccc12  10.2 min
86. O=C(Cc1cccc2ccccc12)N1CCN(Cc2ccccc2)CC1  10.4 min
87. CC(=O)Nc1coc2ccccc12  10.4 min
88. Cc1ccc(-c2cc(C)c(C)cc2C)nc1  10.6 min
89. COC(=O)Cn1c(=O)c2ccccc2n(CC(=O)OC)c1=O  10.7 min
90. COc1ccc(N2C(=O)CC(C3CCCO3)C2=O)cc1 (stereo unspecified)  10.7 min
91. Cc1cn(-c2ccccc2)[nH]c1=O  10.8 min
92. Cc1nnc(Oc2ccccc2)c2ccccc12  10.8 min
93. CCNC(=O)C(=O)NCCc1c[nH]c2ccccc12  10.8 min
94. CSc1cccc2cccnc12  11 min
95. Nc1ccc2nc(-c3ccccc3)oc(=O)c2c1  11.2 min
96. CC1=CC(=O)C2CC1C2(C)C (stereo unspecified)  11.4 min
97. OC(CCN1CCCC1)(c1ccccc1)C1CCCCC1 (stereo unspecified)  11.5 min
98. Oc1ccc(-n2cccc2)cc1  11.5 min
99. Cc1ccc(-c2ccc(CCC(=O)O)n2CC(=O)O)cc1  11.5 min
100. O=C(O)CC(CNC(=O)CCCCCN1C(=O)c2ccccc2C1=O)c1ccccc1 (stereo unspecified)  11.6 min
101. O=C(O)c1ccc2[nH]c3c(c2c1)CCCC3  11.6 min
102. Cn1c(C(=O)N2CCN(C(c3ccccc3)c3ccccc3)CC2)cc(=O)n(C)c1=O  11.7 min
103. COc1ccc(C2CC(=O)Nc3cc4c(cc32)OCO4)cc1 (stereo unspecified)  11.9 min
104. C=C(C)CC1C=CCC(CC(=C)C)N1Cc1ccccc1 (stereo unspecified)  11.9 min
105. COc1cccc(C2CC(=O)Nc3cc4c(cc32)OCO4)c1OC (stereo unspecified)  12 min
106. Cc1cc(C(c2cc(C)c(N)c(C)c2)c2ccco2)cc(C)c1N  12.1 min
107. COC(=O)c1ccc(NC(=O)CC(=O)Nc2ccc(C(=O)OC)cc2)cc1  12.2 min
108. CC1=NC(=O)NC(C2CC=CCC2)C1C(=O)OC(C)C (stereo unspecified)  12.3 min
109. Cc1ccc(-c2cc(C(=O)O)c3ccccc3n2)cc1  12.4 min
110. Cc1[nH]c2ccccc2c1CCNC(=O)CN1C(=O)c2ccccc2C1=O  12.4 min
111. Cc1ccc(C)n1-c1ccccc1CO  12.7 min
112. c1ccc(-c2ccc3ccccc3n2)cc1  13.1 min
113. CCOC(=O)c1ccc(NC(=O)C2CC(=O)N(C3CCCCC3)C2)cc1 (stereo unspecified)  13.2 min
114. Cc1ccc(NC(=O)c2c(C)[nH]c(C)c2C)c(C)c1  13.2 min
115. CCOC(=O)c1c(-c2ccccc2)c[nH]c1C  13.4 min
116. CCOC(=O)C1=C(C(=O)OC)CN(c2ccccc2)N1  13.7 min
117. COc1ccc2c(c1)C(C)N1C(=O)c3ccccc3C1O2 (stereo unspecified)  13.9 min
118. CC1=NC(=O)NC(c2ccccc2)C1C(=O)OC(C)C(C)(C)C (stereo unspecified)  13.9 min
119. Cc1cc(O)c(C(C)C)cc1CNC(=O)c1ccccc1O  14.4 min
120. CCOc1cc(C(=O)Nc2ccc(OC)c(OC)c2)cc(OCC)c1OCC  14.4 min
121. Cc1ccc(N2C(=O)NC(=O)C(=Cc3cc(C)n(-c4ccccc4)c3C)C2=O)cc1  15 min
122. O=C(NCCCc1ccccc1)c1ccccc1O  15.3 min
123. O=C1CC(Nc2ccc3ccccc3c2)C(=O)N1c1cccc2ccccc12 (stereo unspecified)  15.7 min
124. CCOc1cc(C(=O)N(CC)c2ccccc2)cc(OCC)c1OCC  15.9 min
125. CC(=NNC(=O)c1cc2ccccc2cc1O)c1ccc(-c2ccccc2)cc1  16.3 min
126. Cc1ccc2cc(-c3cccs3)[nH]c2c1  16.4 min
127. Cc1cc(-c2noc(C(c3ccccc3)c3ccccc3)n2)c2ccccc2n1  16.9 min
128. CCOc1ccc(C(c2c[nH]c3ccccc23)c2c[nH]c3ccccc23)cc1  17.2 min
129. CCn1c2ccccc2c2ccccc21  17.5 min
130. CC(C)c1cccc(C(C)C)c1NC(=O)COC(=O)CNC(=O)c1ccc(C(C)(C)C)cc1  17.6 min
131. O=C(C1c2ccccc2Oc2ccccc21)N1CCCc2ccccc21  17.8 min
